According to US20210355104A1, “ADENOSINE RECEPTOR BINDING COMPOUNDS” (Nikang Therapeuticsm Inc., priority 2018, published 2021):
Several values for one entry are separate records, joined by “and”; a condition that tells them apart may be missing. Identical values can stand only once.

The compounds below were run against T1, Adenosine A2A receptor (Homo sapiens, UniProt P29274) (assay: Adenosine A2A receptor competitive binding assay (Tag-lite HTRF)). Conditions: Tag-lite adenosine A2A receptor ligand binding, 2 h room temperature; values separated by / are repeat determinations.
Procedure: Adenosine A2A Receptor Competitive Binding Assay
The Tag-lite adenosine A2A receptor ligand binding assay is a homogeneous alternative to radioligand binding assay and developed by Cisbio (Bedford, Mass.). We carried out this assay following Cisbio's instructions with minor modification. Pre-transfected, fluorescent donor-labelled cells (Cisbio Cat#: C1TT1A2A, 200 testes) was stored at −80° C. and thawed right before use. Cells were washed once with 5 ml TLB and gently resuspended in 2 ml TLB. 4 μl suspended cells was dispensed into each well of white low-volume 384-well plate (Greiner Bio-One). Serial dilutions of compounds were prepared in Tag-lite buffer (TLB, Cisbio Cat #: LABMED) to a DMSO concentration of 0.6%. After adding 4 μl of compound dilutions to each well, 4 μl60 nM Adenosine A2A receptor red antagonist fluorescent ligand (Cisbio Cat #: L0058RED) was dispensed to each well. The 384-well assay plate was centrifuged briefly and incubated at room temperature for 2 h. HTRF signals were measured using CIARIOstar plate reader (BMG Labtech).

T1 sequence (P29274 whole entry): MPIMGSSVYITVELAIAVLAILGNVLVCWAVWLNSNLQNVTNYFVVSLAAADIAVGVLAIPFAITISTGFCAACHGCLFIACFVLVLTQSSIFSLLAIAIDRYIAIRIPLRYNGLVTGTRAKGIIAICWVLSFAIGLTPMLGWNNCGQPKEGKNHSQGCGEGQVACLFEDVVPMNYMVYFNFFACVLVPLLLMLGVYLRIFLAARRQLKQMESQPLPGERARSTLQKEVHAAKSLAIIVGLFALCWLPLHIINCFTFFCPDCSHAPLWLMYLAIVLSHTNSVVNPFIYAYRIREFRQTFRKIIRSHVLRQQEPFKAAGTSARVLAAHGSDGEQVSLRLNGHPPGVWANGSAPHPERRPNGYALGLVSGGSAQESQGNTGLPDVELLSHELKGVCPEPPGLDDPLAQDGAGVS

Row | SMILES | IC50
1 | Cc1cc(-c2c(CO)nc(N)nc2-c2ccccc2)cc(C(F)(F)F)n1 [Example 19, (2-amino-5-(2-methyl-6-(trifluoromethyl)pyridin-4-yl)-6-phenylpyrimidin-4-yl)methanol] | 52 nM
2 | CCN(CC)C(=O)OCc1nc(N)nc(-c2ccccc2)c1-c1cc(C)nc(C(F)(F)F)c1 [Example 21, (2-amino-5-(2-methyl-6-(trifluoromethyl)pyridin-4-yl)-6-phenylpyrimidin-4-yl)methyl diethylcarbamate] | 111 nM
3 | Cc1cc(-c2c(CNCC(F)(F)F)nc(N)nc2-c2ccccc2)cc(C(F)(F)F)n1 [Example 24, 5-(2-methyl-6-(trifluoromethyl)pyridin-4-yl)-4-phenyl-6-(((2,2,2-trifluoroethyl)amino)methyl)pyrimidin-2-amine] | 118 nM
4 | CC(=O)N1CCC(Oc2ccc(CCOc3nc(N)nc(-c4ccccc4)c3-c3cc(C)nc(C(F)(F)F)c3)cc2)C1 (stereo not drawn) [Example 25, 1-(3-(4-(2-((2-amino-5-(2-methyl-6-(trifluoromethyl)pyridin-4-yl)-6-phenylpyrimidin-4-yl)oxy)ethyl)phenoxy)pyrrolidin-1-yl)ethan-1-one] | 32 nM
5 | CCN(CC)C(=O)COc1nc(N)nc(-c2ccc(F)cc2)c1-c1cc(C)nc(C(F)(F)F)c1 [Example 27, 2-[[2-amino-6-(4-fluorophenyl)-5-[2-methyl-6-(trifluoromethyl)pyridin-4-yl]pyrimidin-4-yl]oxy]-N,N-diethylacetamide] | 15.9 nM
6 | CCN(CC)C(=O)CNc1nc(N)nc(-c2ccccc2)c1-c1cc(C)nc(C(F)(F)F)c1 [Example 30, 2-((2-amino-5-(2-methyl-6-(trifluoromethyl)pyridin-4-yl)-6-phenylpyrimidin-4-yl)amino)-N,N-diethylacetamide] | 9.95 nM
7 | CC(=O)N1CCN(c2ccc(CCOc3nc(N)nc(-c4ccc(F)cc4)c3-c3cc(C)nc(C(F)F)c3)cc2)CC1 [Example 31, 1-(4-[4-[2-([2-amino-5-[2-(difluoromethyl)-6-methylpyridin-4-yl]-6-(4-fluorophenyl)pyrimidin-4-yl]oxy)ethyl]phenyl]piperazin-1-yl)ethan-1-one] | 8.35 nM
8 | Cc1cc(-c2c(OC3CCOCC3)nc(N)nc2-c2ccc(F)cc2)cc(C(F)F)n1 [Example 33, 5-(2-(difluoromethyl)-6-methylpyridin-4-yl)-4-(4-fluorophenyl)-6-((tetrahydro-2H-pyran-4-yl)oxy)pyrimidin-2-amine] | 66.5 nM
9 | Cc1cc(-c2c(OC3COC3)nc(N)nc2-c2ccc(F)cc2)cc(C(F)F)n1 [Example 34, 5-(2-(difluoromethyl)-6-methylpyridin-4-yl)-4-(4-fluorophenyl)-6-(oxetan-3-yloxy)pyrimidin-2-amine] | 45.3 nM
10 | Cc1cc(-c2c(OCCN3CCN(C)CC3)nc(N)nc2-c2ccc(F)cc2)cc(C(F)F)n1 [Example 35, 5-(2-(difluoromethyl)-6-methylpyridin-4-yl)-4-(4-fluorophenyl)-6-(2-(4-methylpiperazin-1-yl)ethoxy)pyrimidin-2-amine] | 124 nM

Next, values leading:

Row | IC50 | SMILES
11 | 433 nM | CCN(CC)C(=O)CCc1nc(N)nc(-c2ccccc2)c1-c1cc(C)nc(C(F)(F)F)c1 [Example 18, 3-(2-amino-5-(2-methyl-6-(trifluoromethyl)pyridin-4-yl)-6-phenylpyrimidin-4-yl)-N,N-diethylpropanamide]
12 | 26.6 nM | CC(=O)N1CCN(c2ccc(CCOc3nc(N)nc(-c4ccccc4)c3-c3cc(C)nc(C(F)(F)F)c3)cc2)CC1 [Example 20, 1-(4-(4-(2-((2-amino-5-(2-methyl-6-(trifluoromethyl)pyridin-4-yl)-6-phenylpyrimidin-4-yl)oxy)ethyl)phenyl)piperazin-1-yl)ethan-1-one]
13 | 1780 nM | CNCc1nc(N)nc(-c2ccccc2)c1-c1cc(C)nc(C(F)(F)F)c1 [Example 22, 5-(2-methyl-6-(trifluoromethyl)pyridin-4-yl)-4-((methylamino)methyl)-6-phenylpyrimidin-2-amine]
14 | 1780 nM | Cc1cc(-c2c(CN(C)C)nc(N)nc2-c2ccccc2)cc(C(F)(F)F)n1 [Example 23, 4-((dimethylamino)methyl)-5-(2-methyl-6-(trifluoromethyl)pyridin-4-yl)-6-phenylpyrimidin-2-amine]
15 | 43 nM and 26.8 nM | Cc1cc(-c2c(OCCc3ccc(N4CCC(=O)CC4)cc3)nc(N)nc2-c2ccccc2)cc(C(F)(F)F)n1 [Example 26, 1-(4-(2-((2-amino-5-(2-methyl-6-(trifluoromethyl)pyridin-4-yl)-6-phenylpyrimidin-4-yl)oxy)ethyl)phenyl)piperidin-4-one]
16 | 11.4 nM | Cc1cc(-c2c(OCCN3CCOCC3)nc(N)nc2-c2ccc(F)cc2)cc(C(F)F)n1 [Example 36, 5-(2-(difluoromethyl)-6-methylpyridin-4-yl)-4-(4-fluorophenyl)-6-(2-morpholinoethoxy)pyrimidin-2-amine]

The compounds below were run against T1, Adenosine A2A receptor (assay: cAMP assay in 293A cells stably expressing the adenosine A2A receptor (CGS21680 stimulation, HTRF)). Conditions: 293A cells stably expressing A2A receptor; 0.1% BSA; 1 uM CGS21680 stimulation; replicate values separated by /; read-out: cAMP (nM) 0.1% BSA, 1 uM CGS.
Type: cell-based
Parameters: expressed in transfected cells; host or cells: 293A cells (Invitrogen, Cat# R705-07) infected with A2A-expressing lentivirus (custom packaged by Biosettia), puromycin selected

Row | SMILES | IC50
17 | Cc1cc(-c2c(OCc3cc(N4CCOCC4)cc(C(C)(C)O)n3)nc(N)nc2-c2ccc(F)cc2)cc(C(F)F)n1 [Example 424, 2-(6-(((2-amino-5-(2-(difluoromethyl)-6-methylpyridin-4-yl)-6-(4-fluorophenyl)pyrimidin-4-yl)oxy)methyl)-4-morpholinopyridin-2-yl)propan-2-ol] | 5930 nM and 9830 nM
18 | Cc1cc(-c2c(OCc3cc(C(C)(C)O)cc(-c4nnnn4C)n3)nc(N)nc2-c2ccc(F)cc2)cc(C(F)F)n1 [Example 426, 2-(2-(((2-amino-5-(2-(difluoromethyl)-6-methylpyridin-4-yl)-6-(4-fluorophenyl)pyrimidin-4-yl)oxy)methyl)-6-(1-methyl-1H-tetrazol-5-yl)pyridin-4-yl)propan-2-ol] | 7980 nM and 6190 nM
19 | Cc1cc(-c2c(OCc3cc(C(C)(C)O)cc(-c4nnn(C)n4)n3)nc(N)nc2-c2ccc(F)cc2)cc(C(F)F)n1 [Example 427, 2-(2-(((2-amino-5-(2-(difluoromethyl)-6-methylpyridin-4-yl)-6-(4-fluorophenyl)pyrimidin-4-yl)oxy)methyl)-6-(2-methyl-2H-tetrazol-5-yl)pyridin-4-yl)propan-2-ol] | 5150 nM and 6010 nM
20 | Cc1cc(-c2c(OCc3nccc4nn(C)cc34)nc(N)nc2-c2ccc(F)cc2)cc(C(F)F)n1 [Example 430, 5-(2-(difluoromethyl)-6-methylpyridin-4-yl)-4-(4-fluorophenyl)-6-((2-methyl-2H-pyrazolo[4,3-c]pyridin-4-yl)methoxy)pyrimidin-2-amine] | 2460 nM
21 | Cc1cc(-c2c(OCc3cccc(C(O)(CCO)CCO)n3)nc(N)nc2-c2ccc(F)cc2)cc(C(F)F)n1 [Example 432, 3-(6-(((2-amino-5-(2-(difluoromethyl)-6-methylpyridin-4-yl)-6-(4-fluorophenyl)pyrimidin-4-yl)oxy)methyl)pyridin-2-yl)pentane-1,3,5-triol] | 1260 nM
22 | Cc1cc(-c2c(OCc3cc(C#N)cc(C(C)(C)O)n3)nc(N)nc2-c2ccc(F)cc2)cc(C(F)F)n1 [Example 435, 2-(((2-amino-5-(2-(difluoromethyl)-6-methylpyridin-4-yl)-6-(4-fluorophenyl)pyrimidin-4-yl)oxy)methyl)-6-(2-hydroxypropan-2-yl)isonicotinonitrile] | 506 nM
23 | Cc1cc(-c2c(OCc3cc(-c4nn[nH]n4)cc(C(C)(C)O)n3)nc(N)nc2-c2ccc(F)cc2)cc(C(F)F)n1 [Example 441, 2-(6-(((2-amino-5-(2-(difluoromethyl)-6-methylpyridin-4-yl)-6-(4-fluorophenyl)pyrimidin-4-yl)oxy)methyl)-4-(2H-tetrazol-5-yl)pyridin-2-yl)propan-2-ol] | > 3000 nM

More lines, now with the values ahead:

Row | IC50 | SMILES
24 | > 30000 nM | Cc1cc(-c2c(OCc3ccc(=O)n(C(C)(C)C(=O)O)n3)nc(N)nc2-c2ccc(F)cc2)cc(C(F)F)n1 [Example 428, 2-(3-(((2-amino-5-(2-(difluoromethyl)-6-methylpyridin-4-yl)-6-(4-fluorophenyl)pyrimidin-4-yl)oxy)methyl)-6-oxopyridazin-1(6H)-yl)-2-methylpropanoic acid]
25 | 894 nM and 530 nM | Cc1cc(-c2c(OCc3cccc(CN(CC(=O)N(C)C)CC(=O)N(C)C)n3)nc(N)nc2-c2ccc(F)cc2)cc(C(F)F)n1 [Example 436, 2,2′-(((6-(((2-amino-5-(2-(difluoromethyl)-6-methylpyridin-4-yl)-6-(4-fluorophenyl)pyrimidin-4-yl)oxy)methyl)pyridin-2-yl)methyl)azanediyl)bis(N, N-dimethylacetamide)]
26 | 3180 nM | Cc1cc(-c2c(OCc3nc(C(C)(C)O)ccc3C(C)(C)O)nc(N)nc2-c2ccc(F)cc2)cc(C(F)F)n1 [Example 438, 2,2-(6-(((2-amino-5-(2-(difluoromethyl)-6-methylpyridin-4-yl)-6-(4-fluorophenyl)pyrimidin-4-yl)oxy)methyl)pyridine-2,5-diyl)bis(propan-2-ol)]
27 | 23200 nM | Cc1cc(-c2c(OCc3cc(-c4nnnn4C)cc(C(C)(C)O)n3)nc(N)nc2-c2ccc(F)cc2)cc(C(F)F)n1 [Example 443, 2-(6-(((2-amino-5-(2-(difluoromethyl)-6-methylpyridin-4-yl)-6-(4-fluorophenyl)pyrimidin-4-yl)oxy)methyl)-4-(1-methyl-1H-tetrazol-5-yl)pyridin-2-yl)propan-2-ol]
